Source: ChEMBL document CHEMBL4024706 (Eur J Med Chem, 2017)

Assays:
[1] = molecular target: Peripheral plasma membrane protein CASK (Homo sapiens) (UniProt O14936); experiment: Inhibition of wild-type human partial length CASK (M1 to H315 residues) expressed in mammalian expression system assessed as residual activity at 1 uM by Kinomescan method relative to control
[2] = molecular target: Rho-associated protein kinase 2 (Homo sapiens) (UniProt O75116); experiment: Inhibition of wild-type human partial length ROCK2 (M1 to T431 residues) expressed in mammalian expression system assessed as residual activity at 1 uM by Kinomescan method relative to control
Rho-associated protein kinase 2 (Homo sapiens), sequence (O75116 whole entry, looked up, the tested form may be a part): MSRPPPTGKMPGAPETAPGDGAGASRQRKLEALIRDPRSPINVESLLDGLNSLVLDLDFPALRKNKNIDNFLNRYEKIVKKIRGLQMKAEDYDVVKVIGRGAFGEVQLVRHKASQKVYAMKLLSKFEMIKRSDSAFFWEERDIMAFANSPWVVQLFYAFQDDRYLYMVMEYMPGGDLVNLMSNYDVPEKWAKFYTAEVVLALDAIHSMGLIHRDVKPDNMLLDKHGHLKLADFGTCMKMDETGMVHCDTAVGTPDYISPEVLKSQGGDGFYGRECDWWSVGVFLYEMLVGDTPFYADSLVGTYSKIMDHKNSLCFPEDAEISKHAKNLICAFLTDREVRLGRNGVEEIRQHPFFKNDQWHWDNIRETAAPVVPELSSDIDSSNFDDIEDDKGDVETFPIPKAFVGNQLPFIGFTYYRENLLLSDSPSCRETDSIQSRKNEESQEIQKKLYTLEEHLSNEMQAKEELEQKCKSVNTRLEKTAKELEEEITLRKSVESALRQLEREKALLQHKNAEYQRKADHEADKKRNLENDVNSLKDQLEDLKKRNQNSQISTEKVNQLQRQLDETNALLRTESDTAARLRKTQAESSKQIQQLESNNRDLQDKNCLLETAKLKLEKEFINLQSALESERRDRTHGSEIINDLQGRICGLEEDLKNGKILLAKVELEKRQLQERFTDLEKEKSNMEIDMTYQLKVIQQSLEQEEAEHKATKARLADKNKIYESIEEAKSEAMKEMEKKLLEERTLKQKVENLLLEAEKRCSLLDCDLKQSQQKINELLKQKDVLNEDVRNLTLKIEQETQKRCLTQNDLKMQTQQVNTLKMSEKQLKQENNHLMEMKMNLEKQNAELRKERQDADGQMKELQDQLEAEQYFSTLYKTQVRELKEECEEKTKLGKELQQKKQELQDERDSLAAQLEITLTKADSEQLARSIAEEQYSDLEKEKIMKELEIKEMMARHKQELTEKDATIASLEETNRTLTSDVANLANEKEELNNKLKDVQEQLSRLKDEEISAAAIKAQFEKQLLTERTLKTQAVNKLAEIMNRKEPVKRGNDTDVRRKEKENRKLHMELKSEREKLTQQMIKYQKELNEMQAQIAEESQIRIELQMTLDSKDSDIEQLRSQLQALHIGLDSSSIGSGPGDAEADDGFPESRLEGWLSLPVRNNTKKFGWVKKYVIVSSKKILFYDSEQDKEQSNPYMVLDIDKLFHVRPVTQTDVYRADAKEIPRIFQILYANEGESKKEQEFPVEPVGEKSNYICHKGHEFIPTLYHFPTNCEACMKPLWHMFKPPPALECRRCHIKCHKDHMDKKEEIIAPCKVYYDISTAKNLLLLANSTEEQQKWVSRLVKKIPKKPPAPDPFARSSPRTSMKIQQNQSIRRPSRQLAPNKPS

[3] = test system: Fibroblast growth factor receptor 3 (Homo sapiens), P22607 [G697C]; experiment: Inhibition of human partial length FGFR3 G697C mutant (R442 to S771 residues) expressed in bacterial expression system assessed as residual activity at 1 uM by Kinomescan method relative to control
[4] = molecular target: Casein kinase I isoform alpha-like (Homo sapiens) (UniProt Q8N752); experiment: Inhibition of wild-type human full length CSNK1A1L (M1 to N337 residues) expressed in bacterial expression system assessed as residual activity at 1 uM by Kinomescan method relative to control
Casein kinase I isoform alpha-like (Homo sapiens), sequence (Q8N752 whole entry, the tested form may be a part, canonical isoform): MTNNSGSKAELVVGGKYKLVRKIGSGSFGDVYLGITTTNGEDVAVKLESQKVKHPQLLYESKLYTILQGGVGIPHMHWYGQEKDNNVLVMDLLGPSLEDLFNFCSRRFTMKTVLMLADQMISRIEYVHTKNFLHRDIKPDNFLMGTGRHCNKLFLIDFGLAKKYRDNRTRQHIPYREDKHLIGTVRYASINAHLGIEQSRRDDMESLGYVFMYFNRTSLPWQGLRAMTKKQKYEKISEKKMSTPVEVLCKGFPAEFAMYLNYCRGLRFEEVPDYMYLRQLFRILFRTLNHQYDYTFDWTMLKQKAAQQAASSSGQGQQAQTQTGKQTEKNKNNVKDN

[5] = molecular target: Mitogen-activated protein kinase 13 (Homo sapiens) (UniProt O15264); experiment: Inhibition of wild-type human full length p38-delta (M1 to L365 residues) expressed in bacterial expression system assessed as residual activity at 1 uM by Kinomescan method relative to control
[6] = molecular target: Serine/threonine-protein kinase PAK 6 (Homo sapiens) (UniProt Q9NQU5); experiment: Inhibition of wild-type human partial length PAK6 (N298 to C681 residues) expressed in bacterial expression system assessed as residual activity at 1 uM by Kinomescan method relative to control
[7] = molecular target: Calcium-dependent protein kinase 1 (Plasmodium falciparum) (UniProt P62344); experiment: Inhibition of wild-type Plasmodium falciparum isolate 3D7 full length CDPK1 (M1 to S524 residues) expressed in mammalian expression system assessed as residual activity at 1 uM by Kinomescan method relative to control
[8] = molecular target: Protein kinase C eta type (Homo sapiens) (UniProt P24723); experiment: Inhibition of wild-type human partial length PRKCH (S324 to P683 residues) expressed in bacterial expression system assessed as residual activity at 1 uM by Kinomescan method relative to control
[9] = molecular target: Mitogen-activated protein kinase 3 (Homo sapiens) (UniProt P27361); experiment: Inhibition of wild-type human full length ERK1 (M1 to P379 residues) expressed in bacterial expression system assessed as residual activity at 1 uM by Kinomescan method relative to control
[10] = test system: Mast/stem cell growth factor receptor Kit (Homo sapiens), P10721 [UNDEFINED MUTATION]; experiment: Inhibition of human partial length KIT V559D/V654 double mutant (Y545 to D952 residues) expressed in bacterial expression system assessed as residual activity at 1 uM by Kinomescan method relative to control
[11] = molecular target: Dual specificity mitogen-activated protein kinase kinase 4 (Homo sapiens) (UniProt P45985); experiment: Inhibition of wild-type human partial length MEK4 (S84 to D399 residues) expressed in mammalian expression system assessed as residual activity at 1 uM by Kinomescan method relative to control
Dual specificity mitogen-activated protein kinase kinase 4 (Homo sapiens), sequence (P45985 whole entry, the tested form may be a part): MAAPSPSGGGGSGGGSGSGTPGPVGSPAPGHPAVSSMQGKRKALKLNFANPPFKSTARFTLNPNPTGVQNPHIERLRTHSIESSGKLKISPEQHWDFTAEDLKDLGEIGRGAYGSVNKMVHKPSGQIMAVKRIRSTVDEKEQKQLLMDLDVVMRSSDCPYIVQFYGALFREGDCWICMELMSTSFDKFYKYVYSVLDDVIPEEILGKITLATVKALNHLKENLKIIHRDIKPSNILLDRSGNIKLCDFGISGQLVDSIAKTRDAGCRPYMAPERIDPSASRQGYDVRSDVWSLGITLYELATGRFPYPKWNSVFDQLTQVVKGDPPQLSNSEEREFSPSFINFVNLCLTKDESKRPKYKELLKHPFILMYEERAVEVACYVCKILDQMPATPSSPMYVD

[12] = molecular target: Protein kinase C iota type (Homo sapiens) (UniProt P41743); experiment: Inhibition of wild-type human partial length PRKCI (H215 to V587 residues) expressed in mammalian expression system assessed as residual activity at 1 uM by Kinomescan method relative to control
[13] = molecular target: Mitogen-activated protein kinase kinase kinase 15 (Homo sapiens) (UniProt Q6ZN16); experiment: Inhibition of wild-type human partial length MAP3K15 (T625 to L932 residues) expressed in mammalian expression system assessed as residual activity at 1 uM by Kinomescan method relative to control
[14] = molecular target: High affinity nerve growth factor receptor (Homo sapiens) (UniProt P04629); experiment: Inhibition of wild-type human partial length TRKA (G475 to G790 residues) expressed in mammalian expression system assessed as residual activity at 1 uM by Kinomescan method relative to control
High affinity nerve growth factor receptor (Homo sapiens), sequence (P04629 33-796 limits assumed): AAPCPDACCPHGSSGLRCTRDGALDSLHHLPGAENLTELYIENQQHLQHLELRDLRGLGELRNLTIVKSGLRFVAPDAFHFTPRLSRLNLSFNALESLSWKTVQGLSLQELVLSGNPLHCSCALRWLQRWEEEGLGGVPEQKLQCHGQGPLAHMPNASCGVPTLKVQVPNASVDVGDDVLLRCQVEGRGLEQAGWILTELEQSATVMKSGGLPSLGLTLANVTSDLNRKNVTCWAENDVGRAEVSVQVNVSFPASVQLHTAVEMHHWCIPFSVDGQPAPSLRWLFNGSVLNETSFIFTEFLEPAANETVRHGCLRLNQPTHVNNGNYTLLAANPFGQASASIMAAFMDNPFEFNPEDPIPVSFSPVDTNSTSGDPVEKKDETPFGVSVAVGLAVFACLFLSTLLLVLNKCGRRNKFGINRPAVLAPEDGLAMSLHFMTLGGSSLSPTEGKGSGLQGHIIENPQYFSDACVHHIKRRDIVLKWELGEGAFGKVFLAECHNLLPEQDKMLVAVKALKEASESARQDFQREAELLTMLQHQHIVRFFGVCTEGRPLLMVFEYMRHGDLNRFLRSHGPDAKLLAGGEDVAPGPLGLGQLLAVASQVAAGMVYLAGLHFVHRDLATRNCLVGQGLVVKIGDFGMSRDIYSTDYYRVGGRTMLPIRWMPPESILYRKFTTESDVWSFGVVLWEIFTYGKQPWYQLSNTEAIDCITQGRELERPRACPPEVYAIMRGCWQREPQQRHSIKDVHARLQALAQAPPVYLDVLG

[15] = molecular target: Ribosomal protein S6 kinase alpha-6 (Homo sapiens) (UniProt Q9UK32); experiment: Inhibition of wild-type human partial length C-terminal RSK4 kinase domain 2 (I401 to Y711 residues) expressed in bacterial expression system assessed as residual activity at 1 uM by Kinomescan method relative to control
[16] = molecular target: Serine/threonine-protein kinase SIK3 (Homo sapiens) (UniProt Q9Y2K2); experiment: Inhibition of wild-type human partial length QSK (A90 to L395 residues) expressed in mammalian expression system assessed as residual activity at 1 uM by Kinomescan method relative to control
[17] = molecular target: Dual specificity testis-specific protein kinase 1 (Homo sapiens) (UniProt Q15569); experiment: Inhibition of wild-type human […] length TESK1 (R37 to S626 residues) expressed in bacterial expression system assessed as residual activity at 1 uM by Kinomescan method relative to control
Dual specificity testis-specific protein kinase 1 (Homo sapiens), sequence (Q15569 whole entry, looked up, the tested form may be a part): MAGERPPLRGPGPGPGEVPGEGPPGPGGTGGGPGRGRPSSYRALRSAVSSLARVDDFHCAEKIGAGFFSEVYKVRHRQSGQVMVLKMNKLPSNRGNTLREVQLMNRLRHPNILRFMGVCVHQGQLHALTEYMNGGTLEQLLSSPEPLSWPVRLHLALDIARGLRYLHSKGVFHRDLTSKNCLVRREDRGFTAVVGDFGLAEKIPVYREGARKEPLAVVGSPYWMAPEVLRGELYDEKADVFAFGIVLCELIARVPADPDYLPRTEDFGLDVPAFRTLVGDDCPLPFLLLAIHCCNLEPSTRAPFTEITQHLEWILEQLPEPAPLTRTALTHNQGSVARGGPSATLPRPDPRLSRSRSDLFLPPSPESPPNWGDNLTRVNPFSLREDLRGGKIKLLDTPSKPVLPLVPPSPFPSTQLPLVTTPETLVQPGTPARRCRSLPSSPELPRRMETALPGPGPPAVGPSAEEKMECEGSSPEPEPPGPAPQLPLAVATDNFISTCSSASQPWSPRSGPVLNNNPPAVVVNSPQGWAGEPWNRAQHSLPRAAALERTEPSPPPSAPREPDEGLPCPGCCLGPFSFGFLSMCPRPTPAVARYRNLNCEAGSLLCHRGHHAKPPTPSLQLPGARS

[18] = molecular target: Mitogen-activated protein kinase 15 (Homo sapiens) (UniProt Q8TD08); experiment: Inhibition of wild-type human partial length ERK8 (M1 to P437 residues) expressed in bacterial expression system assessed as residual activity at 1 uM by Kinomescan method relative to control
[19] = molecular target: Dual specificity protein kinase CLK1 (Homo sapiens) (UniProt P49759); experiment: Inhibition of wild-type human full length CLK1 (M1 to I484 residues) expressed in bacterial expression system assessed as residual activity at 1 uM by Kinomescan method relative to control
[20] = molecular target: Serine/threonine-protein kinase D2 (Homo sapiens) (UniProt Q9BZL6); experiment: Inhibition of wild-type human partial length PRKD2 (A519 to E838 residues) expressed in bacterial expression system assessed as residual activity at 1 uM by Kinomescan method relative to control
[21] = molecular target: MAP kinase-interacting serine/threonine-protein kinase 1 (Homo sapiens) (UniProt Q9BUB5); experiment: Inhibition of wild-type human full length MKNK1 (M1 to L424 residues) expressed in mammalian expression system assessed as residual activity at 1 uM by Kinomescan method relative to control
[22] = molecular target: Serine/threonine-protein kinase D3 (Homo sapiens) (UniProt O94806); experiment: Inhibition of wild-type human partial length PRKD3 (S543 to E863 residues) expressed in bacterial expression system assessed as residual activity at 1 uM by Kinomescan method relative to control
[23] = molecular target: Dual specificity mitogen-activated protein kinase kinase 3 (Homo sapiens) (UniProt P46734); experiment: Inhibition of wild-type human full length MEK3 (M1 to S318 residues) expressed in mammalian expression system assessed as residual activity at 1 uM by Kinomescan method relative to control
Dual specificity mitogen-activated protein kinase kinase 3 (Homo sapiens), sequence (P46734 whole entry, the tested form may be a part): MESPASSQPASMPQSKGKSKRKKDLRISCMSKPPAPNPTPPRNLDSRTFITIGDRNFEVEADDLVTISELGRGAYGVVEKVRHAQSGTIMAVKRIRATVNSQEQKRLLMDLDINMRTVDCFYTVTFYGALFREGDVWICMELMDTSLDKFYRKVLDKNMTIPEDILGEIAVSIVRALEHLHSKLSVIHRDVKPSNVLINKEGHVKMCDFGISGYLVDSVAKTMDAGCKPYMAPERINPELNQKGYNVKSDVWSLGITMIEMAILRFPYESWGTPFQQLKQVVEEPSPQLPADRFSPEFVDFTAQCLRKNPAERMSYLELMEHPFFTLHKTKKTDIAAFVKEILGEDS

[24] = molecular target: Epidermal growth factor receptor (Homo sapiens, UniProt P00533); experiment: Inhibition of recombinant human N-terminal GST-tagged wild-type EGFR (695 to end residues) expressed in baculovirus infected Sf9 insect cells using poly (Glu,Tyr)4:1 as substrate pretreated for 60 mins followed by substrate addition after 1 hr by ADP-Glo luminescence assay
Epidermal growth factor receptor, sequence (P00533 whole entry): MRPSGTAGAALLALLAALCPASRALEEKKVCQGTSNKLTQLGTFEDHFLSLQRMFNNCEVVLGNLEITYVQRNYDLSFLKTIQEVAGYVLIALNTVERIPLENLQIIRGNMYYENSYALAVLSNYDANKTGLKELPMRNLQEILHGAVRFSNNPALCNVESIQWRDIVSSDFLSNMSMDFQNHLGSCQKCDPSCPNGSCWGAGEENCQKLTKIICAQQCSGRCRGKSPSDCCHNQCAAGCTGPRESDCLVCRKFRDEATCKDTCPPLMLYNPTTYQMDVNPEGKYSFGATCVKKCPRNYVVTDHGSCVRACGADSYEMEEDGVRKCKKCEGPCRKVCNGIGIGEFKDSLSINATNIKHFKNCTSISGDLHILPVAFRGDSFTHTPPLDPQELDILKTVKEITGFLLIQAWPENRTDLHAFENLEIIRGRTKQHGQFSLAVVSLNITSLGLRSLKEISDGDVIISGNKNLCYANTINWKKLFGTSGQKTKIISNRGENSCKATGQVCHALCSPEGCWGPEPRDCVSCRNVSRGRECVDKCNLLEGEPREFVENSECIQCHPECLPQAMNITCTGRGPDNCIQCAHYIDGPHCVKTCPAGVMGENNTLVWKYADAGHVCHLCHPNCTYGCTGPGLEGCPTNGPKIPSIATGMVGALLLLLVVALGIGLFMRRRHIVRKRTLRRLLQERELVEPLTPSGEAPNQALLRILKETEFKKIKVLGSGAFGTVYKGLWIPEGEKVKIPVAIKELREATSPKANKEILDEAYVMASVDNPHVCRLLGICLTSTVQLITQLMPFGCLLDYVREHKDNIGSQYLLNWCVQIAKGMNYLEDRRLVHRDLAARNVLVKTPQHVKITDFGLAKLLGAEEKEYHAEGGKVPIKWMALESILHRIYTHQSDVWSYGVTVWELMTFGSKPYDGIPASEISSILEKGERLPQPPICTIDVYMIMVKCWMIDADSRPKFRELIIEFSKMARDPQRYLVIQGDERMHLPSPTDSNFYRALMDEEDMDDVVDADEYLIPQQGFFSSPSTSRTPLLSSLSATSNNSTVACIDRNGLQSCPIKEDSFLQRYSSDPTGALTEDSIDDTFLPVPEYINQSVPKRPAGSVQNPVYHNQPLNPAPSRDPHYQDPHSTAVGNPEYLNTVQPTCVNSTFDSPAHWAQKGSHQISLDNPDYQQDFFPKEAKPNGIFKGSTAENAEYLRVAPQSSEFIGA

Compound `C=CC(=O)Nc1cc(Nc2cc(-c3cccc(NC(=O)c4ccc(C(C)(C)C)cc4)c3C)cn(C)c2=O)ccc1C(=O)N1CCOCC1` has an Activity [1] of 95%, an Activity [2] of 92% and an Activity [3] of 100%. The Activity [4] was 100%, the Activity [5] was 84% and the Activity [6] was 100%. The Activity [7] was 85%, the Activity [8] was 100% and the Activity [9] was 99%. For the same compound, the Activity [10] was 93%, the Activity [11] was 86% and the Activity [12] was 100%. It also gave an Activity [13] of 99%, an Activity [14] of 91% and an Activity [15] of 89%. The Activity [16] was 78%, the Activity [17] was 90% and the Activity [18] was 100%. For the same compound, the Activity [19] was 97%, the Activity [20] was 100% and the Activity [21] was 91%. The Activity [22] was 100%, the Activity [23] was 100% and the IC50 [24] was greater than 10 µM.
